The text below walks through data of patent publication US7259146B2, “Neuroprotective peptides” (Ortho-McNeil Pharmaceutical, Inc., priority 2000, dated 2007).

For assay [1], the system named is rat hippocampal cultures. The assay is described as follows: Neurite outgrowth assay (MAP2-FITC immunofluorescence), hippocampal cultures. It is filed as cell-based. The settings on record: for overall neurite outgrowth response, hippocampal versus cortical cultures: comparison of hippocampal and cortical cultures; for dose-response profile: 10 fM-10 nM. An excerpt: (§1) Dissociated hippocampal and cortical cell cultures were established from embryonic day 18 rat fetuses as previously described (Mattson et al., 1994). Briefly, fetuses were removed via cesarean section from pregnant moms (Sprague-Dawley) anesthetized with halothane according to the AVMA Panel on Euthanasia. Pups were decapitated and the brains were removed and placed in HEPES-buffered Hank's Balanced Salt solution (HBSS; Gibco). The hippocampi and cortices were dissected out and pooled according to tissue-type. Tissue was trypsinized for 15 min (1 mg/ml trypsin-HBSS; Worthington), rinsed with fresh HBSS, incubated in trypsin inhibitor (1 mg/ml; Sigma) for 5 min, rinsed again with fresh HBSS and then triturated in 1 ml fresh HBSS with a fire-polished glass pipette. Dissociated cells were seeded at 30,000 cells/well onto poly-D-lysine coated 96-well plates (Collaborative BioScience). Each well contained 100 μl of Eagle's Minimal Essential Media (MEM; Gibco) supplemented with 26 mM NaHCO3 (Sigma), 56 mM glucose (Sigma), 15 mM KCl (Sigma), 1 mM sodium pyruvate (Sigma), 1.1 mM L-glutamine (Sigma), 10% (v/v) heat-inactivated fetal bovine serum (Hyclone), and 0.001% gentamicin sulfate (Sigma) (pH 7.4). Cells were allowed to attach for 24 h in a humidified 37° C. 5% CO2 incubator before experimental treatment. The culture media was aspirated and exchanged with fresh media every three days.
(§2) Twenty-four hours after plating, cultures were treated with vehicle (PBS+0.1% BSA), 100 ng of various growth factors (brain derived neurotrophic factor (BDNF; Promega), glial-derived neurotrophic factor (GDNF; Promega), nerve growth factor (NGF; Boehringer Mannheim), basic fibroblast growth factor (bFGF; Boehringer Mannheim), insulin-like growth factor-1 (IGF-1; Boehringer Mannheim), neurotrophin-3 (NT3; Calbiochem), neurotrophin-4 (NT4; Calbiochem), ciliary neurotrophic factor (CNTF; Calbiochem), epidermal growth factor (EGF; Calbiochem), vascular endothelial growth factor (VEGF; Calbiochem)), or rhEPO (prepared same as above; 10 fM-10 nM)). Each treatment condition was run in quadruplicate or octuplicate. On the third day in culture, the media was aspirated off and replaced with fresh media and test compound. At one week in culture, the cells were fixed with 10% phosphate-buffered formalin for 15 min, then rinsed with DPBS (Sigma) and placed in blocking serum for 30 min (horse serum; 1:50 dilution in DPBS; Vector Labs). Cultures were rinsed again with DPBS and then incubated in primary antibody for 2 hr (microtubule-associated protein-2 (MAP-2) is a selective marker for dendritic processes; anti-mouse monoclonal (Chemicon); 1:1000 dilution of MAP-2 in antibody diluent (Zymed)). Negative control wells were incubated in antibody diluent alone. Background signal was determined by blank wells (cell-free) incubated with or without antibody. Cultures were rinsed again with DPBS and then placed in fluorescein for 1 hr (FITC; anti-mouse IgG; rat adsorbed; 1:50 dilution in DPBS; Vector Labs). Cultures were rinsed a final time with DPBS and then the plates were read on a Cytofluor 4000 fluorescence plate reader. Neurite outgrowth was expressed as percent change from control (vehicle; mean fluorescence±SD).
(§3) Dissociated hippocampal and cortical cell cultures were established from embryonic day 18 rat fetuses as previously described (Mattson et al., 1994). Briefly, fetuses were removed via cesarean section from pregnant moms (Sprague-Dawley) anesthetized with halothane according to the AVMA Panel on Euthanasia. Pups were decapitated and the brains were removed and placed in HEPES-buffered Hank's Balanced Salt solution (HBSS; Gibco). The hippocampi and cortices were dissected out and pooled according to tissue-type. […]

In assay [2] the test system is rat cerebral cortical cultures. Kind of assay: Neurite outgrowth assay (MAP2-FITC immunofluorescence), cortical cultures. The settings on record: for dose-response profile: 10 fM-10 nM. It is filed as cell-based.
Excerpt: as §1, §2, §3

As to GGTYSCHFAPLTWVCKPQGG [EMP-9], the “overall neurite outgrowth response, hippocampal versus cortical cultures” value in assay [1] is reported as “less impressive overall”. For the same sequence, in assay [1] (hippocampal cultures), the “neurite outgrowth (in words)” value is listed as “promotes neurite outgrowth” and the dose-response profile entry is “flat response profile”. In assay [2], the “neurite outgrowth (in words)” value was “promotes neurite outgrowth” and the dose-response profile result is “flat response overall”.
As to GGTYSCFGPLTWVCKPQGG [EMP-27], in assay [1], the “overall neurite outgrowth response, hippocampal versus cortical cultures” value is “less impressive overall”. Moreover, in assay [1] (hippocampal cultures), the “neurite outgrowth (in words)” value is “promotes neurite outgrowth” and the dose-response profile result was “flat response profile”. For the same sequence, in assay [2], the “neurite outgrowth (in words)” value is “promotes neurite outgrowth” and the dose-response profile entry is “flat response overall”.
Turning to GGTYSCHFGPLTWVCKPQGG [EMP-1], in assay [1], the “overall neurite outgrowth response, hippocampal versus cortical cultures” value is recorded as “selective effects in hippocampal cultures over cortical cultures”. In addition, the “neurite outgrowth (in words)” value in assay [1] (hippocampal cultures) and in assay [2] was “promotes neurite outgrowth” throughout. Also, the dose-response profile entry in assay [1] (hippocampal cultures) was “typical bell-shaped dose-response profiles”; in assay [2] it was “flat response overall”.
For the sequence GGTASCHFGPLTWVCKPQGG [EMP-6], the “overall neurite outgrowth response, hippocampal versus cortical cultures” value in assay [1] was “robust neurite outgrowth activity in both hippocampal and cortical cultures”. Besides, in assay [1] (hippocampal cultures), the “neurite outgrowth (in words)” value was “promotes neurite outgrowth” and the dose-response profile result is given as “typical bell-shaped dose-response profiles”. In assay [2], the “neurite outgrowth (in words)” value is reported as “promotes neurite outgrowth” and the dose-response profile result is “typical bell-shaped dose-response profiles”.
With YCHFGPLTWVC [EMP-23], the “overall neurite outgrowth response, hippocampal versus cortical cultures” value in assay [1] is recorded as “effects were greater in cortical cultures than hippocampal cells”. Moreover, in assay [1] (hippocampal cultures), the “neurite outgrowth (in words)” value was “promotes neurite outgrowth” and the dose-response profile result is reported as “modest response”. In assay [1] (hippocampal cultures, EMP 10 fM-10 nM, one week in culture), the “neurite outgrowth at peak activity, increase over vehicle” value is given as 43–46%. For the same sequence, in assay [2], the “neurite outgrowth (in words)” value is recorded as “promotes neurite outgrowth” and the dose-response profile entry was “typical bell-shaped dose-response profiles”.
